Measurements from publication PMC8848508 (ACS Central Science, 2022).
“Also recorded” adds a separate entry of the source. Where a SMILES comes first, the peptide text is derived from it. The star is where a group is joined. Cbz = O=C(OCc1ccccc1)*

Biological target: SARS-CoV-2 M^Pro (Severe acute respiratory syndrome coronavirus 2, UniProt P0DTD1, Q3569G)
Assay type: cell-based

SMILES	cellular inhibition of M^Pro (in words)
CC(C)C[C@@H](C=O)NC(=O)[C@H](CC(C)C)NC(=O)[C@H](CC(C)C)NC(=O)OCc1ccccc1 [MG-132] (Cbz-Leu-Leu-Leu-aldehyde)	close to undetectable
CCN(CC)CCCC(C)Nc1ccnc2cc(Cl)ccc12 (stereo not drawn) [chloroquine]	relatively weak to undetectable; also recorded: close to undetectable
CCN(CCO)CCCC(C)Nc1ccnc2cc(Cl)ccc12 (stereo not drawn) [hydroxychloroquine]	relatively weak to undetectable; also recorded: close to undetectable
CC(C)COCC(CN(Cc1ccccc1)c1ccccc1)N1CCCC1 (stereo not drawn) [bepridil]	relatively weak to undetectable; also recorded: very weak inhibition; also recorded: close to undetectable
CC(C)(C)NC(=O)N[C@H](C(=O)N1C[C@H]2[C@@H]([C@H]1C(=O)NC(CC1CCC1)C(=O)C(N)=O)C2(C)C)C(C)(C)C (stereo partly drawn) [boceprevir]	close to undetectable; also recorded: very weak
CCCC[C@@H](C=O)NC(=O)[C@H](CC(C)C)NC(=O)OCc1ccccc1 [calpeptin]	close to undetectable
CCC[C@H](NC(=O)[C@@H]1[C@H]2CCC[C@H]2CN1C(=O)[C@@H](NC(=O)[C@@H](NC(=O)c1cnccn1)C1CCCCC1)C(C)(C)C)C(=O)C(=O)NC1CC1 [telaprevir]	close to undetectable
CCCCCCNC(=O)n1cc(F)c(=O)[nH]c1=O [carmofur]	undetectable
O=c1c2ccccc2[se]n1-c1ccccc1 [ebselen]	relatively weak to undetectable
